In ChEMBL document CHEMBL1122550:

Experiment: The ability to displace [3H]colchicine binding to rat brain tubulin protein
Parameters: concentration or dose not given beside the values
Conditions: concentration not given here

Compared with `COc1cc2c(c(OC)c1OC)-c1ccc(OC)c(=O)cc1[C@@H](NC(=O)COC(=O)C1CC(C)(C)N([O])C1(C)C)CC2` (stereo partly specified), `COc1cc2c(c(OC)c1OC)-c1ccc(OC)c(=O)cc1[C@@H](NC(=O)COC(=O)[C@H]1CC(C)(C)N([O])C1(C)C)CC2` is higher in inhibition: 60% for the first, 65% for the second.

`COc1cc2c(c(OC)c1OC)-c1ccc(OC)c(=O)cc1[C@@H](NC(=O)[C@H]1CC(C)(C)N([O])C1(C)C)CC2` and `COc1cc2c(c(OC)c1OC)-c1ccc(OC)c(=O)cc1[C@@H](NC(=O)[C@@H]1CC(C)(C)N([O])C1(C)C)CC2` are the same in inhibition: 0% for the first, 0% for the second.

First: COc1cc2c(c(OC)c1OC)-c1ccc(OC)c(=O)cc1[C@@H](NC(=O)COC(=O)[C@@H]1CC(C)(C)N([O])C1(C)C)CC2
Second: COc1c(COC(=O)C2CC(C)(C)N([O])C2(C)C)c2c(c(OC)c1OC)-c1ccc(OC)c(=O)cc1[C@@H](NC(C)=O)CC2 (stereo partly specified)
The inhibition of the first is higher: 72% for the first, 24% for the second.
